Reference: PubChem BioAssay AID248 (DTP/NCI, 2004)
Values joined by “and” are separate entries in the source; they are usually repeats but may differ in a detail not shown here. Identical values can stand only once. Toxic doses and inconclusive results are not listed.

Test system: L1210 leukemia ip in BDF1 mice, survival T/C
Assay: NCI In Vivo Anticancer Drug Screen. Data for tumor model L1210 Leukemia (intraperitoneal) in B6D2F1 (BDF1) mice
Details: endpoint: mean survival time, higher = longer survival
Method in brief: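 Tumor cells were implanted, animals were treated, and survival was followed. The result divides the treated measurement by the vehicle-control measurement.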

[1] = dose: 100.0 mg/kg/injection, schedule: Q01DX009 (ip), vehicle: Klucel (hydroxypropylcellulose) (HPC)
[2] = dose: 200.0 mg/kg/injection, schedule: Q01DX009 (ip), vehicle: Klucel (hydroxypropylcellulose) (HPC)
[3] = dose: 400.0 mg/kg/injection, schedule: Q01DX009 (ip), vehicle: Klucel (hydroxypropylcellulose) (HPC)
[4] = dose: 100.0 mg/kg/injection, schedule: Q04DX003 (ip), vehicle: saline with Tween-80
[5] = dose: 200.0 mg/kg/injection, schedule: Q04DX003 (ip), vehicle: saline with Tween-80
[6] = dose: 400.0 mg/kg/injection, schedule: Q04DX003 (ip), vehicle: saline with Tween-80
[7] = dose: 25.0 mg/kg/injection, schedule: Q01DX009 (ip), vehicle: saline
[8] = dose: 25.0 mg/kg/injection, schedule: Q04DX003 (ip), vehicle: saline
[9] = dose: 50.0 mg/kg/injection, schedule: Q01DX009 (ip), vehicle: saline
[10] = dose: 50.0 mg/kg/injection, schedule: Q04DX003 (ip), vehicle: saline
[11] = dose: 100.0 mg/kg/injection, schedule: Q01DX009 (ip), vehicle: saline
[12] = dose: 100.0 mg/kg/injection, schedule: Q04DX003 (ip), vehicle: saline
[13] = dose: 100.0 mg/kg/injection, schedule: Q04DX003 (ip), vehicle: Klucel (hydroxypropylcellulose) (HPC)
[14] = dose: 200.0 mg/kg/injection, schedule: Q04DX003 (ip), vehicle: Klucel (hydroxypropylcellulose) (HPC)
[15] = dose: 400.0 mg/kg/injection, schedule: Q04DX003 (ip), vehicle: Klucel (hydroxypropylcellulose) (HPC)
[16] = dose: 50.0 mg/kg/injection, schedule: Q01DX001 (ip), vehicle: saline
[17] = dose: 100.0 mg/kg/injection, schedule: Q01DX001 (ip), vehicle: saline
[18] = dose: 200.0 mg/kg/injection, schedule: Q01DX001 (ip), vehicle: saline
[19] = dose: 400.0 mg/kg/injection, schedule: Q01DX001 (ip), vehicle: saline

## CCN(CC)P(=O)(N1CC1C)N1CC1C (stereo not drawn)
dose: 4.4 mg/kg/injection, schedule: Q01DX015 (ip), vehicle: saline
  T/C: 111 % of control
dose: 6.25 mg/kg/injection, schedule: Q01DX009 (ip), vehicle: saline
  T/C: 122 % of control
dose: 6.6 mg/kg/injection, schedule: Q01DX015 (ip), vehicle: saline
  T/C: 105 % of control
dose: 10.0 mg/kg/injection, schedule: Q01DX015 (ip), vehicle: saline
  T/C: 106 % of control
dose: 14.0 mg/kg/injection, schedule: Q01DX009 (ip), vehicle: saline
  T/C: 112 % of control
dose: 15.0 mg/kg/injection, schedule: Q01DX015 (ip), vehicle: saline
  T/C: 106 % of control
dose: 33.0 mg/kg/injection, schedule: Q01DX015 (ip), vehicle: saline
  T/C: 109 % of control
dose: 44.4 mg/kg/injection, schedule: Q01DX001 (ip), vehicle: saline
  T/C: 108 % of control and 115 % of control
dose: 50.0 mg/kg/injection, schedule: Q01DX015 (ip), vehicle: saline
  T/C: 102 % of control
dose: 66.6 mg/kg/injection, schedule: Q01DX001 (ip), vehicle: saline
  T/C: 121 % of control
dose: 75.0 mg/kg/injection, schedule: Q01DX009 (ip), vehicle: saline
  T/C: 90 % of control
dose: 150.0 mg/kg/injection, schedule: Q01DX001 (ip), vehicle: saline
  T/C: 157 % of control

## C/C(=N\Nc1nc2ccccc2s1)c1ccncc1
dose: 50.0 mg/kg/injection, schedule: Q01DX009 (ip), vehicle: Klucel (hydroxypropylcellulose) (HPC)
  T/C: 101 % of control
[1]
  T/C: 100 % of control
[2]
  T/C: 107 % of control
[3]
  T/C: 101 % of control

## Cc1cc2oc(=O)cc(C)c2c(=O)o1
dose: 100.0 mg/kg/injection, schedule: Q01DX001 (ip), vehicle: carboxymethylcellulose (CMC)
  T/C: 97 % of control
dose: 200.0 mg/kg/injection, schedule: Q01DX001 (ip), vehicle: carboxymethylcellulose (CMC)
  T/C: 92 % of control

## NC(=O)c1cccc([N+](=O)[O-])c1
[4]
  T/C: 101 % of control
[5]
  T/C: 95 % of control
[6]
  T/C: 93 % of control

## CC(C)(C)OC(=O)C(CC(=O)O)NC(=O)OCc1ccccc1 (stereo not drawn) (tested in a mixture with another compound)
[7]
  T/C: 101 % of control
[8]
  T/C: 94 % of control
[9]
  T/C: 104 % of control
[10]
  T/C: 94 % of control
[11]
  T/C: 106 % of control
[12]
  T/C: 100 % of control and 91 % of control

## C(#CP(c1ccccc1)c1ccccc1)c1ccccc1
[13]
  T/C: 93 % of control
[14]
  T/C: 97 % of control
[15]
  T/C: 95 % of control

## CC1(C)OCC(COCc2ccccc2)O1 (stereo not drawn)
[4]
  T/C: 96 % of control
[5]
  T/C: 104 % of control
[6]
  T/C: 95 % of control

## COc1cc(-c2ccc(Nc3ccccc3C(=O)O)c(OC)c2)ccc1N
dose: 15.0 mg/kg/injection, schedule: Q01DX Z (ip), vehicle: carboxymethylcellulose (CMC)
  T/C: 102 % of control
dose: 22.0 mg/kg/injection, schedule: Q01DX Z (ip), vehicle: carboxymethylcellulose (CMC)
  T/C: 117 % of control
dose: 23.0 mg/kg/injection, schedule: Q01DX Z (ip), vehicle: carboxymethylcellulose (CMC)
  T/C: 112 % of control
dose: 35.0 mg/kg/injection, schedule: Q01DX Z (ip), vehicle: carboxymethylcellulose (CMC)
  T/C: 111 % of control and 121 % of control
[16]
  T/C: 121 % of control
[17]
  T/C: 115 % of control
[18]
  T/C: 114 % of control

## [Cl][Pt+2]([Cl])([Cl])[Cl].c1ccc(C2CC[N-]CC2)cc1.c1ccc(C2CC[N-]CC2)cc1
dose: 50.0 mg/kg/injection, schedule: Q01DX009 (ip), vehicle: water
  T/C: 101 % of control
dose: 100.0 mg/kg/injection, schedule: Q01DX009 (ip), vehicle: water
  T/C: 102 % of control
dose: 100.0 mg/kg/injection, schedule: Q04DX003 (ip), vehicle: water
  T/C: 105 % of control
dose: 200.0 mg/kg/injection, schedule: Q04DX003 (ip), vehicle: water
  T/C: 103 % of control

## c1ccc(OCC2(N3CCCCC3)CCCC2)cc1
dose: 100.0 mg/kg/injection, schedule: Q04DX002 (ip), vehicle: saline with Tween-80
  T/C: 97 % of control

## Nc1ccc(CCc2[nH]c(N)nc(=S)c2-c2ccc(Cl)cc2)cc1
[5]
  T/C: 110 % of control
[6]
  T/C: 86 % of control

## NC(CO)C(=O)O.[Cl-].[Cl-].[Cl-].[Cl-].[Pt+2] (stereo not drawn)
dose: 12.5 mg/kg/injection, schedule: Q01DX009 (ip), vehicle: saline
  T/C: 114 % of control and 117 % of control
[7]
  T/C: 122 % of control
[9]
  T/C: 119 % of control

## CCSCCC#N
dose: 100.0 mg/kg/injection, schedule: Q04DX002 (ip), vehicle: saline
  T/C: 103 % of control
dose: 200.0 mg/kg/injection, schedule: Q04DX002 (ip), vehicle: saline
  T/C: 109 % of control

## CN(C)C(=O)/N=N/C(=O)N(C)C
[7]
  T/C: 97 % of control
[8]
  T/C: 96 % of control
[9]
  T/C: 106 % of control
[10]
  T/C: 102 % of control
[11]
  T/C: 101 % of control
[12]
  T/C: 102 % of control

## CCC(=O)CC(C)(C)C
[17]
  T/C: 92 % of control
[18]
  T/C: 97 % of control
[19]
  T/C: 100 % of control

## CN(C)CN(C)C
dose: 25.0 mg/kg/injection, schedule: Q01DX001 (ip), vehicle: saline
  T/C: 98 % of control
[7]
  T/C: 89 % of control
[8]
  T/C: 100 % of control
[16]
  T/C: 102 % of control
[9]
  T/C: 100 % of control
[10]
  T/C: 100 % of control
[12]
  T/C: 102 % of control

## O=C(O)C1(NO)CCCC1
[16]
  T/C: 102 % of control
[17]
  T/C: 121 % of control
[19]
  T/C: 110 % of control

## OCc1ccccc1CN1CCCC1
dose: 100.0 mg/kg/injection, schedule: Q01DX001 (ip), vehicle: Klucel (hydroxypropylcellulose) (HPC)
  T/C: 94 % of control
dose: 200.0 mg/kg/injection, schedule: Q01DX001 (ip), vehicle: Klucel (hydroxypropylcellulose) (HPC)
  T/C: 96 % of control
dose: 400.0 mg/kg/injection, schedule: Q01DX001 (ip), vehicle: Klucel (hydroxypropylcellulose) (HPC)
  T/C: 97 % of control

## O[C@@H]1CCC[C@H]1n1cnc2c(=S)nc[nH]c21
dose: 89.0 mg/kg/injection, schedule: Q04DX003 (ip), vehicle: saline with Tween-80
  T/C: 104 % of control
dose: 133.0 mg/kg/injection, schedule: Q04DX003 (ip), vehicle: saline with Tween-80
  T/C: 112 % of control

## CN(C)S(=O)(=O)c1ccc(NC(=O)C(Cl)(Cl)Cl)cc1
dose: 100.0 mg/kg/injection, schedule: Q01DX001 (ip), vehicle: other
  T/C: 104 % of control
[1]
  T/C: 94 % of control
dose: 100.0 mg/kg/injection, schedule: Q04DX003 (ip), vehicle: other
  T/C: 101 % of control
dose: 200.0 mg/kg/injection, schedule: Q01DX001 (ip), vehicle: other
  T/C: 96 % of control
[2]
  T/C: 92 % of control
dose: 200.0 mg/kg/injection, schedule: Q04DX003 (ip), vehicle: other
  T/C: 95 % of control
dose: 400.0 mg/kg/injection, schedule: Q01DX001 (ip), vehicle: other
  T/C: 98 % of control
dose: 400.0 mg/kg/injection, schedule: Q04DX003 (ip), vehicle: other
  T/C: 93 % of control

## CCCCCCCCCCCCCCCC(=O)O
[1]
  T/C: 100 % of control
[13]
  T/C: 98 % of control
[2]
  T/C: 92 % of control
[14]
  T/C: 98 % of control
[3]
  T/C: 97 % of control
[15]
  T/C: 97 % of control

## NC(=O)CN1C(=O)C2C3CCC(C3)C2C1=O (stereo not drawn)
[4]
  T/C: 107 % of control
[5]
  T/C: 107 % of control
[6]
  T/C: 107 % of control

## c1ccc(N=P(c2ccccc2)(c2ccccc2)c2ccccc2)cc1
[17]
  T/C: 94 % of control
[18]
  T/C: 94 % of control

## O=[N+]([O-])c1[nH]c(Br)c(Br)c1Br
dose: 0.75 mg/kg/injection, schedule: Q01DX009 (ip), vehicle: Klucel (hydroxypropylcellulose) (HPC)
  T/C: 92 % of control
dose: 1.5 mg/kg/injection, schedule: Q01DX009 (ip), vehicle: Klucel (hydroxypropylcellulose) (HPC)
  T/C: 89 % of control
dose: 3.0 mg/kg/injection, schedule: Q01DX009 (ip), vehicle: Klucel (hydroxypropylcellulose) (HPC)
  T/C: 89 % of control
